Tests used:
[1] = biological target: T1, horseradish peroxidase (HRP) (Armoracia rusticana, UniProt P00433); experiment: Plate assay: kinetic screening of enhancers of HRP-mediated DAB oxidation (ultraView Detection Kit, OD 455 nm); format: biochemical; details: for Vmax (apparent, HRP-oxidized DAB): no enhancer 18.50; for Percent increase of apparent Vmax of HRP: relative to uView Vmax without enhancement
T1 construct: purchased VMSI (Ventana Medical Systems, Inc.) 760-500: 253-4290, 253-4292 and 253-4293
Procedure: The additives were directly added to a well containing the necessary reagents from the ultraView™ Detection Kit (VMSI 760-500: 253-4290, 253-4292 and 253-4293) in 1× Reaction Buffer (VMSI 950-300) and 0.1% fish gelatin. Fish gelatin was used to help disperse the oxidized DAB and inhibit its precipitation from solution. The ultraView™ Detection Kit was diluted to measure the formation of oxidized DAB by UV-VIS at 455 nm. Additives were tested at set concentrations to determine enhancement in the DAB oxidation reaction. The data were graphed, and the apparent maximum velocity (Vmax) was calculated at each additive concentration level.

[2] = Solubility of additive in reaction buffer / aqueous buffers; format: physicochemical
ultraView HRP multimer = biological target: T2, ultraView HRP multimer (Armoracia rusticana, UniProt P00433); experiment: Michaelis-Menten kinetics of HRP-oxidized DAB with enhanced DAB chromogen mixtures; format: biochemical, horseradish
T2 construct: purchased Ventana Medical Systems (ultraView kit component)
T2 sequence (P00433 31-338 limits assumed): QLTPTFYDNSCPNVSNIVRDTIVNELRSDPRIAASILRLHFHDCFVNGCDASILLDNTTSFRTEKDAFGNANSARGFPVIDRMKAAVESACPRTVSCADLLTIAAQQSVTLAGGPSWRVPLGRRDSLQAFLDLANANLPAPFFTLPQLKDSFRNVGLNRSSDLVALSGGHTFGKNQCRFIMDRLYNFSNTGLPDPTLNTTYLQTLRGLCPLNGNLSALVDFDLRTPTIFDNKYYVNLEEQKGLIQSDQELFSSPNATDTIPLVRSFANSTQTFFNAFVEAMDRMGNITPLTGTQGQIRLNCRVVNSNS
Procedure: To further study the synergistic effect in the increased apparent Vmax for HRP-oxidized DAB, Michaelis-Menten kinetics were calculated for the best enhanced DAB chromogen mixtures in Table 3. […] The definition of Vmax=kcat·[E]total when the enzyme substrate concentration was at saturation levels. When the concentration of enzyme was kept constant, the apparent Vmax is proportional to kcat (the apparent turnover for HRP or the first order rate constant).

bcl2 in tonsil tissue = experiment: TSA-IHC tissue staining of bcl2 in tonsil tissue (TA-HQ deposition)
Procedure: Enhanced DAB deposition was evaluated on a TSA-IHC tissue staining of bcl2 in tonsil tissue. […] Tyramide deposition was performed with and without 10 mM 2-hydroxypyrimidine. […] The percent of cells stained with DAB increased in areas with low bcl2 antigen expression. Formalin fixed paraffin embedded tonsil tissue was mounted on Superfrost slides, deparaffinized and antigen retrieved using CC1 bulk reagent (Ventana® p/n 950-124). […] Slides were counterstained using Hematoxylin II (Ventana® p/n 790-2208) and Bluing Reagent (Ventana® p/n760-2037). The slides were dehydrated using gradient alcohols, cover slipped and viewed using a bright field microscope (FIGS. 23-26).

[3] = Compatibility and stability of reformulated DAB Chromogen solution with additive; format: physicochemical; details: higher concentrations of imidazole; 50 mM L-histidine
[4] = biological target: T1, horseradish peroxidase (HRP); experiment: Plate assay: enhancers added sequentially to ultraView Detection Kit (synergistic/antagonistic effects); format: biochemical; details: NMO added to mixture 4; 50 mM L-histidine or 10 mM pyrimidine added to mixture 5
Procedure: The same concentration of reagents from the ultraView™ Detection Kit (VMSI 760-500: 253-4290, 253-4292 and 253-4293) were used in 1× Reaction Buffer™ containing 0.1% fish gelatin for each trial. In each trial, the enhancers were added together one at a time.

[5] = tested on: HER-2 positive CaLu3 carcinoma cell lines; experiment: ISH tissue staining with HER2 DNA probe on HER-2 3-in-1 mouse xenografts; details: 10 mM in DAB Chromogen solution; CaLu3 carcinoma cells
Procedure: ISH tissue staining was examined using enhanced DAB solutions. HER-2 3-in-1 mouse xenografts of HER-2 positive carcinoma cell lines CaLu3, ZR-75-1 and MCF7 were treated with HER2 DNA probe (VMSI 480-4495) and stained with the ultraView™ DAB Chromogen solution or an enhanced DAB Chromogen solution containing 10 mM L-histidine (see FIGS. 21-22). […] The increased DAB deposition was marginal for the strongest ISH signals, but signal intensity for the weaker DAB signals was raised throughout the tissue. The same observation was made with enhanced DAB deposition in IHC.

[6] = enhancer 50 mM, (sat) = reaction rate saturated by start of UV-VIS analysis
[7] = enhancer 100 mM, (sat) = reaction rate saturated by start of UV-VIS analysis

SMILES | Vmax (apparent, HRP-oxidized DAB) ([1]; enhancer 10 mM) | Vmax (apparent, HRP-oxidized DAB) [1, 6] | Vmax (apparent, HRP-oxidized DAB) [1, 7] | Solubility in aqueous buffers (in words) [2] | Vmax (ultraView HRP multimer; enhancer 10 mM in 50 mM imidazole, 10 mM calcium chloride, 10 mM boric acid) | Tyramide deposition in TSA-IHC staining (in words) (bcl2 in tonsil tissue; 10 mM during tyramide deposition, 8 minute primary Ab incubation) | Percent increase of apparent Vmax of HRP ([1]; enhancer 10 mM) | Percent increase of apparent Vmax of HRP ([1]; enhancer 50 mM) | Precipitation of DAB from reformulated DAB Chromogen solution [3] | Effect on apparent velocity of HRP when added to a preceding assay mixture of Table 2 [4] | Vmax (ultraView HRP multimer; 10 mM buffer salt with 10 mM pyrimidine, no enhancer 228) | Vmax (ultraView HRP multimer; 50 mM buffer salt with 10 mM 2-hydroxypyrimidine (FIG. 19: also 10 mM boric acid, 10 mM calcium chloride)) | DAB deposition in ISH staining (in words) [5] | DAB deposition in TSA-IHC staining (in words) (bcl2 in tonsil tissue; 10 mM in DAB Chromogen solution, 16 minute primary Ab incubation)
Oc1ncccn1 [2-Hydroxypyrimidine] | 144.00 mOD/min | 156.00 mOD/min | 148.00 mOD/min | do not have solubility or volatility problems | 320 mOD/min | increased the tyramide deposition | – | – | – | – | – | – | – | –
N[C@@H](Cc1c[nH]cn1)C(=O)O [L-Histidine] | 21.84 mOD/min | 44.00 mOD/min | 72.00 mOD/min | – | – | – | 18% | 138% | caused the precipitation of DAB | increased the apparent velocity of HRP | 300 mOD/min | 317 mOD/min | increased the deposition of DAB | increased the DAB deposition on tissue
